Structures can show the parent of a compound that is named as a salt. Where two headings read alike, the source gives them in different places. Some results are limits rather than exact numbers.

Test [1] concerns the target T1, hRIPK1 (aa 1-375) fusion protein (Homo sapiens, UniProt Q13546).
T1 construct: hRIPK1 (aa 1-375) fusion protein
T1 sequence (Q13546 1-375): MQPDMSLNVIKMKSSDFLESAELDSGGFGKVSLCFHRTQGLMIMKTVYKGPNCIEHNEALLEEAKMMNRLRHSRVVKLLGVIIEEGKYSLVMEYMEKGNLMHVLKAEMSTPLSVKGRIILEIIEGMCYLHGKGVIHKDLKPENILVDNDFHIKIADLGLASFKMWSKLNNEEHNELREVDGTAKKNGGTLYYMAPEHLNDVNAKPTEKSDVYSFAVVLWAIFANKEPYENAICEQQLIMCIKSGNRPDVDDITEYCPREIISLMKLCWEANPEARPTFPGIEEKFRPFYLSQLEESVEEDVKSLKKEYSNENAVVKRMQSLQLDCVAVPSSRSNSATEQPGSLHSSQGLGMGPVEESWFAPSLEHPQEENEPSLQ
In words: ADP-Glo kinase assay, RIPK1 autophosphorylation. It is filed as biochemical. The following applies: Table 1. Here is the method: Evaluation of Receptor-Interacting Protein Kinase 1 Inhibition.
The catalytic activity of RIPK1 was measured by monitoring the conversion of Adenosine triphosphate (ATP) to Adenosine diphosphate (ADP) due to autophosphorylation using an ADP-Glo kinase kit (Promega, catalog no. V9104).
After another 240 minutes incubation at room temperature, 5 μl Promega ADP-Glo reagent I were added to quench the reaction and deplete unconsumed ATP. After an incubation period of 30 minutes, 10 μl Promega ADP-Glo detection reagent II were added resulting in conversion of ADP to ATP, which generates a light-reaction between luciferase and luciferin. Luminescence was quantified after 30 minutes with a Pherastar FS (BMG LABTECH, Ortenberg).
The adjustment was obtained by nonlinear regression using the Levenberg Marquardt algorithm.

The next test has as its system U937 cells. In words: Cellular assay in U937 cells on cell death (necroptosis), TNFα/zVAD.fmk. The settings on record: read-out: U937 IC50. It is filed as cell-based. Summed up:
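U937 cells with 100 ng/ml TNFα plus 50 μM zVAD.fmk (pre-addition suspension levels) received 10 compound concentrations (10 μM–0.26 nM or 1 μM–0.07 nM) for 18–24 h at 37 °C. Live cells were read by MTS formazan absorbance at 490 nm after 4 h. % inhibition is relative to the maximal value without TNFα/zVAD.fmk.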

For the molecule `CC1(C(=O)N2OCC[C@H]2c2cncc(C#N)c2)CCN(c2nccc(C(=O)O)n2)CC1` [Ex. 021], the half-inhibitory concentration (IC50) is 70.4 nM in test [1] and greater than 10000 nM in the test on U937 cells (Homo sapiens, U-937, Table 2).
On the same counts, the results for `COc1nc(N2CCC(C(=O)N3OCC[C@H]3c3cncnc3)CC2)ncc1F` [Ex. 064] are 20.4 nM and 64.2 nM.
For `N#Cc1cncc([C@@H]2CCON2C(=O)C2CCN(c3ccnc(C(N)=O)n3)CC2)c1` [Ex. 156], the IC50 in test [1] amounted to 297 nM; in the test on U937 cells (Homo sapiens, U-937, Table 2), 927 nM.
Regarding `Cc1cncc([C@@H]2CCON2C(=O)C2CCN(c3cc(C(N)=O)ncn3)CC2)c1` [compound 134, (S)-6-(4-(3-(5-methylpyridin-3-yl)isoxazolidine-2-carbonyl)piperidin-1-yl)pyrimidine-4-carboxamide], the IC50 in test [1] stood at 41.6 nM; in the test on U937 cells (Homo sapiens, U-937, Table 2) it was 148 nM.
On the same counts, the results for `N#Cc1cncc([C@@H]2CCON2C(=O)C2CCN(c3nccc(C#N)n3)CC2)c1` [Ex. 011] are 24.5 nM and 12.6 nM.
On the same counts, the results for `Cc1ccc([C@@H]2CCON2C(=O)C2CCN(c3ncnc(C(N)=O)c3F)CC2)cn1` [compound 187, 5-fluoro-6-[4-[(3S)-3-(6-methyl-3-pyridyl)isoxazolidine-2-carbonyl]-1-piperidyl]pyrimidine-4-carboxamide; trifluoroacetic acid] are 65.9 nM and 321 nM.
As to `N#Cc1cncc([C@@H]2CCON2C(=O)C2CCN(c3nc(Cl)ncc3F)CC2)c1` [compound 130, 5-[(3S)-2-[1-(2-chloro-5-fluoro-pyrimidin-4-yl)piperidine-4-carbonyl]isoxazolidin-3-yl]pyridine-3-carbonitrile], the IC50 in test [1] amounted to 22.3 nM; with U937 cells (Homo sapiens, U-937, Table 2), 22.2 nM.
For `N#Cc1cncc([C@@H]2CCON2C(=O)C2CCN(c3cc(Cl)ncn3)CC2)c1` [Ex. 159], the IC50 in test [1] was 31.8 nM; with U937 cells (Homo sapiens, U-937, Table 2), 77.1 nM.
With `Cc1coc([C@@H]2CCON2C(=O)C2CCN(c3cc(C(N)=O)ncn3)CC2)c1` [compound 153, (S)-6-(4-(3-(4-methylfuran-2-yl)isoxazolidine-2-carbonyl)piperidin-1-yl)pyrimidine-4-carboxamide 2,2,2-trifluoroacetate salt], the IC50 in test [1] came to 102 nM; in the test on U937 cells (Homo sapiens, U-937, Table 2), 99.8 nM.
As to `CC1(CCNC(=O)c2ccnc(N3CCC(C(=O)N4OCC[C@H]4c4cncc(C#N)c4)CC3)n2)CC1` [compound 77, 2-[4-[(3S)-3-(5-cyano-3-pyridyl)isoxazolidine-2-carbonyl]-1-piperidyl]-N-[2-(1-methylcyclo-propyl)ethyl]pyrimidine-4-carboxamide], the IC50 in test [1] was found to be 28.1 nM; with U937 cells (Homo sapiens, U-937, Table 2), 38.5 nM.
On the same counts, the results for `Cc1c(F)cncc1[C@@H]1CCON1C(=O)C1CCN(c2nccc(C#N)n2)CC1` [compound 140, (S)-2-(4-(3-(5-fluoro-4-methylpyridin-3-yl)isoxazolidine-2-carbonyl)piperidin-1-yl)pyrimidine-4-carbonitrile] are 71.3 nM and 550 nM.
For the molecule `N#Cc1cncc([C@@H]2CCON2C(=O)C2CCN(c3ccnc(Cl)n3)CC2)c1` [compound 147, 5-[(3S)-2-[1-(2-chloropyrimidin-4-yl)piperidine-4-carbonyl]isoxazolidin-3-yl]pyridine-3-carbonitrile], the IC50 in test [1] stood at 30.6 nM; in the test with U937 cells (Homo sapiens, U-937, Table 2), 56.9 nM.
With `N#Cc1cncc([C@@H]2CCON2C(=O)C2CCN(c3cncc(C(N)=O)n3)CC2)c1` [Ex. 71], the IC50 was 25.6 nM in test [1] and 964 nM with U937 cells (Homo sapiens, U-937, Table 2).
With `Cc1nc(Cl)nc(N2CCC(C(=O)N3OCC[C@H]3c3cnccn3)CC2)n1` [Ex. 180], the IC50 in test [1] was 32 nM; in the test on U937 cells (Homo sapiens, U-937, Table 2) it was 1050 nM.
For the molecule `O=C(O)c1ccnc(N2CCC(C(=O)N3OCCC3c3cncc(F)c3)CC2)n1` (racemic) [Ex. 054*], the IC50 in test [1] is 767 nM; with U937 cells (Homo sapiens, U-937, Table 2) it was greater than 10000 nM.
For `COC(=O)c1ccnc(N2CCC(C)(C(=O)N3OCC[C@H]3c3cncc(C#N)c3)CC2)n1` [Ex. 020, Methyl 2-[4-[(3S)-3-(5-cyano-3-pyridyl)isoxazolidine-2-carbonyl]-4-methyl-1-piperidyl]pyrimidine-4-carboxylate], the IC50 in test [1] stood at 10.7 nM; in the test with U937 cells (Homo sapiens, U-937, Table 2) it was 118 nM.
As to `CCOC(=O)c1ncnc(N2CCC(C(=O)N3OCC[C@H]3c3cncc(C#N)c3)CC2)c1F` [Ex. 057, Ethyl 6-[4-[(3S)-3-(5-cyano-3-pyridyl)isoxazolidine-2-carbonyl]-1-piperidyl]-5-fluoro-pyrimidine-4-carboxylate], the IC50 was 30.9 nM in test [1] and 110 nM with U937 cells (Homo sapiens, U-937, Table 2).
For the molecule `NC(=O)c1ccnc(N2CCC(C(=O)N3OCCC3c3cncc(F)c3)CC2)n1` (racemic) [Ex. 050*], the IC50 is 26.7 nM in test [1] and 32.9 nM in the test on U937 cells (Homo sapiens, U-937, Table 2).
Take `N#Cc1cncc([C@@H]2CCON2C(=O)C2CCN(c3cc(Br)ncn3)CC2)c1` [Ex. 165]: the IC50 in test [1] came to 25 nM; with U937 cells (Homo sapiens, U-937, Table 2), 52.7 nM.
As for `NC(=O)c1nc(N2CCC(F)(C(=O)N3OCC[C@H]3c3cncc(F)c3)CC2)ncc1F` [compound 126, (S)-5-fluoro-2-(4-fluoro-4-(3-(5-fluoropyridin-3-yl)isoxazolidine-2-carbonyl)piperidin-1-yl)pyrimidine-4-carboxamide], the IC50 amounted to 25 nM in test [1] and 39.6 nM in the test on U937 cells (Homo sapiens, U-937, Table 2).
Regarding `N#Cc1cncc([C@@H]2CCON2C(=O)C2CCN(c3cnc(C(N)=O)cn3)CC2)c1` [Ex. 072], the IC50 in test [1] turned out to be 25 nM; with U937 cells (Homo sapiens, U-937, Table 2), 554 nM.
On the same counts, the results for `Cc1ccc([C@@H]2CCON2C(=O)C2CCN(c3nccc(C#N)n3)CC2)cn1` [compound 127, (S)-2-(4-(3-(6-methylpyridin-3-yl)isoxazolidine-2-carbonyl)piperidin-1-yl)pyrimidine-4-carbonitrile] are 24.1 nM and 53.3 nM.
With `Cc1ncc([C@@H]2CCON2C(=O)C2CCN(c3cc(C(N)=O)ncn3)CC2)cc1F` [compound 139, 6-[4-[(3S)-3-(5-fluoro-6-methyl-3-pyridyl)isoxazolidine-2-carbonyl]-1-piperidyl]pyrimidine-4-carboxamide], the IC50 was found to be 33.6 nM in test [1] and 44.7 nM with U937 cells (Homo sapiens, U-937, Table 2).
On to `NC(=O)c1nc(N2CCC(C(=O)N3OCC[C@H]3c3cncc(F)c3)CC2)ncc1F` [Ex. 080], for which the IC50 in test [1] amounted to 10.3 nM; with U937 cells (Homo sapiens, U-937, Table 2), 3.37 nM.
Regarding “2-[(3R,4R)-4-[(3S)-3-(5-cyano-3-pyridyl)isoxazolidine-2-carbonyl]-3-fluoro-1-piperidyl]pyrimidine-4-carboxamide and 2-[(3S,4S)-4-[(3S)-3-(5-cyano-3-pyridyl)isoxazolidine-2-carbonyl]-3-fluoro-1-piperidyl]pyrimidine-4-carboxamide [Ex. 092]”, the IC50 in test [1] was 12.2 nM; with U937 cells (Table 2), 50.2 nM.
`COc1nccc(N2CCC(C(=O)N3OCC[C@H]3c3cncc(C#N)c3)CC2)n1` [compound 144, 5-[(3S)-2-[1-(2-methoxypyrimidin-4-yl)piperidine-4-carbonyl]isoxazolidin-3-yl]pyridine-3-carbonitrile]: the IC50 in test [1] came out at 75.2 nM; in the test on U937 cells (Homo sapiens, U-937, Table 2), 536 nM.
In the same order, the values of `Cc1cncc([C@@H]2CCON2C(=O)C2CCN(c3nccc(C(N)=O)n3)CC2)n1` [compound 44] are 9.31 nM and 8.47 nM.
On to `NC(=O)c1nc(N2CCC(C(=O)N3OCC[C@H]3c3ccccn3)CC2)ncc1F` [Ex. 175], for which the IC50 in test [1] came out at 22.3 nM; with U937 cells (Homo sapiens, U-937, Table 2), 44.6 nM.
With `NC(=O)c1ccnc(N2CCC(F)(C(=O)N3OCC[C@H]3c3cnccn3)C(F)(F)C2)n1` (stereo partly drawn) [compound 122, 2-[3,3,4-trifluoro-4-[(3S)-3-pyrazin-2-ylisoxazolidine-2-carbonyl]-1-piperidyl]pyrimidine-4-carboxamide], the IC50 in test [1] was determined as 29.3 nM; with U937 cells (Homo sapiens, U-937, Table 2), 44.2 nM.
Consider `N#Cc1cncc([C@@H]2CCON2C(=O)C2CCN(c3ccnc(C#N)n3)CC2)c1` [compound 145, 4-[4-[(3S)-3-(5-cyano-3-pyridyl)isoxazolidine-2-carbonyl]-1-piperidyl]pyrimidine-2-carbonitrile], for which the IC50 in test [1] is 46.6 nM; in the test on U937 cells (Homo sapiens, U-937, Table 2), 149 nM.
Consider `N#Cc1cc([C@@H]2CCON2C(=O)C2CCN(c3nccc(C(N)=O)n3)CC2)cnn1` [compound 179, 2-[4-[(3S)-3-(6-cyanopyridazin-4-yl)isoxazolidine-2-carbonyl]-1-piperidyl]pyrimidine-4-carboxamide], for which the IC50 was 173 nM in test [1] and 2030 nM in the test with U937 cells (Homo sapiens, U-937, Table 2).
On the same counts, the results for `N#Cc1ccc([C@@H]2CCON2C(=O)C2CCN(c3cc(C(N)=O)ncn3)CC2)nc1` [Ex. 107] are 364 nM and 7520 nM.

The values above are taken from patent publication US12655139B2, “Isoxazolidines as RIPK1 inhibitors and use thereof” (SANOFI, priority 2020, dated 2026).
